Marks after values point to notes of the source that are not given here.
Tests used:
[1] = system: male white Swiss mice (CD-1); assay: Psychomotor seizure test (6 Hz, 32 mA), screening; type: in vivo; conditions: 100 mg/kg intraperitoneal, time point 0.5 h
Protocol: (§1) The studies were carried out on male white Swiss mice (CD-1) weighing 18-26 g. All procedures were performed in accordance with the applicable Polish and international guidelines for the ethics of animal research, after obtaining of the appropriate institutional consent. […] Screening tests were performed in groups consisted of 4 mice. All tests were performed according to the procedures described in the specialist literature: maximal electroshock test (MES) (Kamiński et al. Bioorg. Med. Chem. 2015, 23, 2548-2561; Castel-Branco et al. Pharmacol. 2009, 31, 101-106, Riban et al. Neurosci. 2002, 112, 101-111); psychomotor seizure test (6 Hz, 32 mA) (Barton et al. Epilepsy Res. 2001, 47, 217-227; Wojda et al. Epilepsy Res. 2009, 86, 163-174); subcutaneous pentylenetetrazole test (scPTZ) (Ferreri et al. Pharmacol. Biochem. Behav. 2004, 77, 85-94).

[2] = system: male white Swiss mice (CD-1); assay: Maximal electroshock test (MES), screening; type: in vivo; conditions: 100 mg/kg intraperitoneal, time point 0.5 h
Protocol: as §1

[3] = Water solubility test at 25° C. per 1 gram of compound (European Pharmacopoeia 10.0 / Polish Pharmacopoeia XII); conditions: for The volume of water required for dissolution of 1 g of the substance at 25° C.: 1 g of compound, maximum volume of water used 100 mL; for Matching term (solubility in water, pharmacopoeial terminology): European Pharmacopoeia 10.0 / Polish Pharmacopoeia XII
[4] = system: male white Swiss mice (CD-1); assay: Subcutaneous pentylenetetrazole test (scPTZ), screening; type: in vivo; conditions: 100 mg/kg intraperitoneal, time point 0.5 h
Protocol: as §1

[5] = system: male white Swiss mice (CD-1); conditions: model AED, comparison; cited from earlier work
[6] = system: male white Swiss mice (CD-1); conditions: model AED, comparison; cited from earlier work; remark: listed apart in the source
[7] = system: male white Swiss mice (CD-1); assay: Anticonvulsant screening summarised over MES, scPTZ and 6 Hz (32 mA) models; type: in vivo; conditions: screening data of Table 3, 100 mg/kg intraperitoneal
Protocol: as §1
These models are recognized as the most important and widely used pharmacological tests allowing the identification of candidates for new antiepileptic drugs. […] This is crucial in situations requiring immediate intervention to stop seizures, including, e.g status epilpepticus, which is considered as a life-threatening situation.

| Structure (SMILES) | 6 Hz (32 mA): number of mice protected/number of mice tested [1] | MES: number of mice protected/number of mice tested [2] | The volume of water required for dissolution of 1 g of the substance at 25° C. [3] | Matching term (solubility in water, pharmacopoeial terminology) [3] | scPTZ: number of mice protected/number of mice tested [4] | Activity in scPTZ test (in words) [5] | Activity in MES test (in words) [6] | Anticonvulsant activity (in words) [7] |
| --- | --- | --- | --- | --- | --- | --- | --- | --- |
| C[C@H](C(=O)NCc1ccccc1)N1C(=O)CCC1=O [(2R)-1, reference compound] | 4/4 | 3/4 | >100^c mL | Slightly soluble | 3/4 |  |  |  |
| CC(C(=O)NCc1ccccc1F)N1CCCC1=O [(2R,S)-4, (2R,S)-N-(2-fluorobenzyl)-2-(2-oxopyrrolidin-1-yl)propanamide] | 3/4 | 3/4 | 30 mL | Soluble | 2/4 |  |  |  |
| CC(C(=O)NCc1ccccc1)N1CCCC1=O (stereo not shown) [Compound 3, N-benzyl-2-(2-oxopyrrolidin-1-yl)propanamide] |  |  |  | water-soluble substances |  |  |  |  |
| CC[C@@H](C(N)=O)N1CCCC1=O [levetiracetam] |  |  |  |  |  | inactive | inactive |  |
| CC(C(=O)NCc1ccccc1)N1CCCC1=O [Compound (2R,S)-3, (2R,S)-N-benzyl-2-(2-oxopyrrolidin-1-yl)propanamide] | 4/4 | 3/4 | 25 mL | Soluble | 2/4 |  |  |  |
| C[C@@H](C(=O)NCc1ccccc1)N1C(=O)CCC1=O [(2S)-1, reference compound] | 4/4 | 1/4 | >100^c mL | Slightly soluble | 2/4 |  |  |  |
| C[C@@H](C(=O)NCc1ccccc1)N1CCCC1=O [Compound (2S)-3, (2S)-N-benzyl-2-(2-oxopyrrolidin-1-yl)propanamide] | 2/4 | 2/4 | 25 mL | Soluble | 2/4 |  |  |  |
| CC(C(=O)NCc1ccccc1)N1C(=O)CCC1=O (racemic) [(2R,S)-1, reference compound] | 3/4 | 3/4 | >100^c mL | Slightly soluble | 2/4 |  |  |  |
| C[C@H](C(=O)NCc1ccccc1F)N1C(=O)CC(N(C)C)C1=O.Cl (stereo partly drawn) [Compound (2R)-6 × HCl, (2R)-2-(3-(dimethylamino)-2,5-dioxopyrrolidin-1-yl)-N-(2-fluorobenzyl)propanamide hydrochloride] |  |  |  |  |  |  |  | potent anticonvulsant activity |
| C[C@@H](C(=O)NCc1ccccc1F)N1C(=O)CCC1=O [(2S)-2, reference compound] | 2/4 | 2/4 | >100^c mL | Slightly soluble | 2/4 |  |  |  |
| C[C@H](C(=O)NCc1ccccc1)N1CCCC1=O [Compound (2R)-3, (2R)-N-benzyl-2-(2-oxopyrrolidin-1-yl)propanamide] | 4/4 | 4/4 | 25 mL | Soluble | 3/4 |  |  | potent anticonvulsant activity |
| CC(C(=O)NCc1ccccc1)N1C(=O)CC(N(C)C)C1=O (stereo not shown) [Compound 5, N-benzyl-2-(3-(dimethylamino)-2,5-dioxopyrrolidin-1-yl)propanamide] |  |  |  | substances easily soluble in water |  |  |  |  |
| CC(C(=O)NCc1ccccc1F)N1C(=O)CC(N(C)C)C1=O (stereo not shown) [Compound 6] |  |  |  | substances easily soluble in water |  |  |  |  |
| C[C@H](C(=O)NCc1ccccc1F)N1CCCC1=O [Compound (2R)-4, (2R)-N-(2-fluorobenzyl)-2-(2-oxopyrrolidin-1-yl)propanamide] | 4/4 | 4/4 | 30 mL | Soluble | 3/4 |  |  | potent anticonvulsant activity |
| C[C@H](C(=O)NCc1ccccc1F)N1C(=O)CCC1=O [(2R)-2, reference compound] | 4/4 | 4/4 | >100^c mL | Slightly soluble | 3/4 |  |  |  |
| CC(C(=O)NCc1ccccc1F)N1C(=O)CCC1=O (racemic) [(2R,S)-2, reference compound] | 3/4 | 3/4 | >100^c mL | Slightly soluble | 3/4 |  |  |  |
| C[C@@H](C(=O)NCc1ccccc1F)N1CCCC1=O [Compound (2S)-4, (2S)-N-(2-fluorobenzyl)-2-(2-oxopyrrolidin-1-yl)propanamide] | 2/4 | 2/4 | 30 mL | Soluble | 2/4 |  |  |  |
| C[C@H](C(=O)NCc1ccccc1)N1C(=O)CC(N(C)C)C1=O.Cl (stereo partly drawn) [Compound (2R)-5 × HCl, (2R)-N-benzyl-2-(3-(dimethylamino)-2,5-dioxopyrrolidin-1-yl)propanamide hydrochloride] |  |  |  |  |  |  |  | potent anticonvulsant activity |
| CC(C(=O)NCc1ccccc1F)N1CCCC1=O (stereo not shown) [Compound 4, N-(2-fluorobenzyl)-2-(2-oxopyrrolidin-1-yl)propanamide] |  |  |  | water-soluble substances |  |  |  |  |
